Results reported in patent US9096532B2, “Pyrazole inhibitors of COX-2 and sEH” (The Regents of the University of California, priority 2010, dated 2015).
“Also recorded” adds a separate entry of the source.

Tests used:
HepG2 cells = experiment: HepG2 cell viability analysis (MTT); format: cell-based; conditions: Homo sapiens, HepG2; MTT after 24 hours of incubation
Description: Cells were plated at 10,000 cell per well in 96-well plates and allowed to attach overnight under the growth conditions described above. […] These compounds were dissolved in 100% DMSO and diluted with EMEM to the desired concentration of 0.1 μM, 1.0 μM, 10 μM, 25 μM, and 50 μM, with a final DMSO concentration of 0.1% for all cell-based in vitro studies. All studies included DMSO as a solvent control. Cell viability was determined using the MTT Cell Viability Assay Kit from ATCC according to manufacturer's instructions. The 96-well plates were measure at 570 nm using SpectroMax 190 plate reader (Molecular Devices, Sunnyvale, Calif.). […] Each concentration was performed in triplicate per 96-well plate and EC50 data are presented as the mean±standard deviation from at least 3 separate experiments performed on separate days.

ovine COX-1 = target: T1, ovine COX-1 (Ovis aries, UniProt P05979); experiment: Cyclooxygenase inhibition assay (COX Fluorescent Inhibitor Screening Assay Kit), COX-1; format: biochemical; conditions: for inhibition at 100 µM: read-out: COX-1 (% inhibition)
T1 construct: purchased Cayman Chemical 700100
T1 sequence (P05979 25-600): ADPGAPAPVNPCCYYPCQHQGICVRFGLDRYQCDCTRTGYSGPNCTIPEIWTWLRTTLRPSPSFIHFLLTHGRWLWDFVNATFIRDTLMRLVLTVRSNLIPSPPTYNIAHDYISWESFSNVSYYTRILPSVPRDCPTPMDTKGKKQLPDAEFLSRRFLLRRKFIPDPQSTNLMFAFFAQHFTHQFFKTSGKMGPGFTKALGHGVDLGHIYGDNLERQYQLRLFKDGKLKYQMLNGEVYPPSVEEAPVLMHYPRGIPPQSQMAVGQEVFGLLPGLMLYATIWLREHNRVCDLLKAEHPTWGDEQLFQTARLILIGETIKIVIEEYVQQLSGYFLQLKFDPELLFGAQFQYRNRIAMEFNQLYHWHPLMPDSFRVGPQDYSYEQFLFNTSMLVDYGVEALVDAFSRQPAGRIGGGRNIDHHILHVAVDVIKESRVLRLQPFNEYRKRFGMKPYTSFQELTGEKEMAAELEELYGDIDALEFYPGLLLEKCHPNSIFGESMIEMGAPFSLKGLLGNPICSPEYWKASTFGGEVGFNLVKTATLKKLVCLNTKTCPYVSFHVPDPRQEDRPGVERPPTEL
Description: (§1) Stock solutions of test compounds are dissolved in a minimum volume of DMSO. 10 μl of various concentrations of the test compound solutions, e.g., [I]final between 0.01 and 100 μM, are added to a series of supplied reaction buffer solutions (150 μl, 100 mM Tris-HCl, pH 8.0) with either COX-1 or COX-2 (10 μl) enzyme in the presence of Heme (10 μl) and a fluorometric substrate (10 μl). The reactions are initiated by quickly adding 10 μl of arachidonic acid solution and then incubating the system for two minutes at room temperature. […] The intensity of this fluorescence is proportional to the amount of resorufin, which is proportional to the amount of PGG2 present in the well during the incubation. Percent inhibition is calculated by comparison from the 100% initial activity sample value (no inhibitor).
as §1, with “compounds were” for “compounds are”, “μM, were” for “μM, are”, “reactions were” for “reactions are”, “then incubated” for “then incubating the system”, “inhibition was” for “inhibition is”

LPS induced allodynia = experiment: Von Frey mechanical nociceptive assay, LPS induced model of inflammatory pain; format: in vivo; conditions: male SD rats, 10 mg/kg s.c. 60 minutes before intraplantar LPS, tested until 6 hours post LPS
Description: In vivo anti-allodynic effects of the COX-2/sEH dual inhibitors provided herein was assayed. An LPS induced model of inflammatory pain was used to compare the pain reducing activity of the COX-2/sEH dual inhibitors to combination and individual therapies.
Rats weighing approximately 250-300 grams are brought to the testing apparatus and allowed to acclimate for 30 minutes. After 30 minutes the rats are tested with a von Frey aesthesiometer for their non-treated baseline withdrawal latency to mechanical stimulation. The von Frey apparatus is a raised metal mesh platform that has clear acrylic chambers to enclose rats but allow them to move freely. A rigid tip von Frey probe is used to probe the plantar surface of the rat hind paw though the mesh floor to elicit a withdrawal response. The measures recorded are grams of force applied to the hind paw required to elicit a withdrawal. The pretreatment baseline score is considered the pain-free baseline (BL) and is assigned 100% for further response calculations. […] The measures are then calculated as a percent of the pretreatment baseline score.

human sEH = target: T2, human sEH (Homo sapiens, UniProt P34913); experiment: sEH IC50 assay, fluorescent-based with CMNPC substrate; format: biochemical; conditions: compared to compound 11g
T2 sequence (P34913 1-555): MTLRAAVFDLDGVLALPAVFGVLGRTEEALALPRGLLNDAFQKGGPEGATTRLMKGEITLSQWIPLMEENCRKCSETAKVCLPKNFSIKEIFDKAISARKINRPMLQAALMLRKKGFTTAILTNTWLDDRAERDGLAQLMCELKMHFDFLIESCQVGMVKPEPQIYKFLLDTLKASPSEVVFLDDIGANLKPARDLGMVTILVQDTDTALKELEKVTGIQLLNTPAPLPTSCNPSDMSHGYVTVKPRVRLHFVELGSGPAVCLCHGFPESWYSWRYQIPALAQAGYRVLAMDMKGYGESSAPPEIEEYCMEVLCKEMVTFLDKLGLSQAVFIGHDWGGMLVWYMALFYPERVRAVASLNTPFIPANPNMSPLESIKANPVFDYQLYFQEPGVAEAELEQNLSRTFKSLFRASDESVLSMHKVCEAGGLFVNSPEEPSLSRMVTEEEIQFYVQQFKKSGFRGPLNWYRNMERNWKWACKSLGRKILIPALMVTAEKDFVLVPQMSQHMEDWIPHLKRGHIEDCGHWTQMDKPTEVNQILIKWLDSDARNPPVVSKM
Description: sEH inhibition IC50 values for the compounds presented herein can be assayed by a recombinant affinity assay using purified sEHs, from human, mouse or rat, in a fluorescent-based assay.
For the recombinant affinity assay, purified sEHs (human, mouse and rat) were used in a fluorescent-based assay to determine IC50 values. […] These IC50 values were calculated from at least three separate runs, each in triplicate, to obtain the statistics herein, e.g., standard deviation.

human recombinant COX-2 = target: T3, human recombinant COX-2 (Homo sapiens, UniProt P35354); experiment: Cyclooxygenase inhibition assay (COX Fluorescent Inhibitor Screening Assay Kit), COX-2; format: biochemical
T3 construct: purchased Cayman Chemical 700100
T3 sequence (P35354 18-604): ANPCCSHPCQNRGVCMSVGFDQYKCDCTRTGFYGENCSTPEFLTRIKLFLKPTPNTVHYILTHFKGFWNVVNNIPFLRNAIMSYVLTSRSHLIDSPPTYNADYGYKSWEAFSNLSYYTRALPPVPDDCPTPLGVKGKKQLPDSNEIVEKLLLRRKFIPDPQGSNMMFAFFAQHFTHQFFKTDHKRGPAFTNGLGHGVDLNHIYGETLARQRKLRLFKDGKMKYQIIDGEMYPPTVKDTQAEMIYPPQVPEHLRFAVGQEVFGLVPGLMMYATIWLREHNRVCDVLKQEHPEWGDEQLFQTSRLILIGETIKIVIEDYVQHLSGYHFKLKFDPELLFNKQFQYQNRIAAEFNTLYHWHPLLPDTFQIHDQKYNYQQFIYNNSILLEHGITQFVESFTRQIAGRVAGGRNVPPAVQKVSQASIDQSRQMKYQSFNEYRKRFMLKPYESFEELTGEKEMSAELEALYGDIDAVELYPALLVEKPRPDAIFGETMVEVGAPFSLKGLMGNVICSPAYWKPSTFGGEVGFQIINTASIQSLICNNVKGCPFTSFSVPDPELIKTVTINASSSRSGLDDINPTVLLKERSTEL
Description: as §1
as §1, with “compounds were” for “compounds are”, “μM, were” for “μM, are”, “reactions were” for “reactions are”, “then incubated” for “then incubating the system”, “inhibition was” for “inhibition is”

[1] = Pharmacokinetics in mice by oral cassette dosing; format: in vivo; conditions: oral cassette dosing at 5 mg/kg, blood
Description: All the animal experiments were performed according to protocols approved by the Animal Use and Care Committee of University of California, Davis. […] Each cassette was orally administered to 4 mice at a dose of 5 mg/kg in 120-150 μl of vehicle depending on animal weight. […] The instrument was equipped with a linear ion trap and a Turbo V ion source and was operated in negative ion MRM mode. […] This was maintained for 3 min, then the gradient was returned to 30% solvent B in 2 min. The flow rate was 0.4 mL/min. The injection volume was 10 μL and the samples were kept at 4° C. in the auto sampler.

5-LOX = target: T4, 5-LOX (Homo sapiens, UniProt P09917); experiment: Potency against 5-LOX; format: biochemical; conditions: compared with celecoxib
T4 sequence (P09917 1-674): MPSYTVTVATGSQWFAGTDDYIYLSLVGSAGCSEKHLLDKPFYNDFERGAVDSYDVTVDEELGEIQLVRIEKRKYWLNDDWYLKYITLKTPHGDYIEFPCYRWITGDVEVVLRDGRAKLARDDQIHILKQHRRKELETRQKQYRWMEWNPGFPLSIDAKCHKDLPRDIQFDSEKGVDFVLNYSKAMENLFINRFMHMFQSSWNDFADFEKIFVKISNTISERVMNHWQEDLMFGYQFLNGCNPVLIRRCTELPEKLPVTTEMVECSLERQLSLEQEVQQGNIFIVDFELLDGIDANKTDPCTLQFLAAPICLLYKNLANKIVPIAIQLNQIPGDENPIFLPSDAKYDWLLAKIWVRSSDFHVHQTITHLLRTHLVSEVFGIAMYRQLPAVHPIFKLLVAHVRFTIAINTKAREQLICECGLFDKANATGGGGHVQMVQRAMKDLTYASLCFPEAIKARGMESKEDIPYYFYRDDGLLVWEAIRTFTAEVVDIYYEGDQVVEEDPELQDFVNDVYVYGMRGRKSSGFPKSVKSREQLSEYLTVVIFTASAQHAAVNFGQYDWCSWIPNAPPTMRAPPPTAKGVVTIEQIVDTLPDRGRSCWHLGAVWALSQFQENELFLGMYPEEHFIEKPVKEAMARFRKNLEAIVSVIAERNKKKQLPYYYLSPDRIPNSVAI

[2] = Pharmacokinetics in rats by oral administration
[3] = human recombinant COX-2, triplicate average
[4] = rats, oral administration at 1 mg/kg (n = 4), blood

Compound	EC50 (HepG2 cells) [µM]	COX-1 (% inhibition) (ovine COX-1; ovine COX-1, % inhibition at 100 μM concentration) [%]	Anti-allodynic effect, von Frey paw withdrawal, in words (LPS induced allodynia)	Improvement of sEH inhibition (human sEH) [fold]	IC50 (human recombinant COX-2; [3]) [µM]	IC50 (human recombinant COX-2; text of b131, unit inferred) [µM]	IC50 (ovine COX-1) [µM]	inhibition at 100 µM (ovine COX-1) [%]	AUC [1] [µM·h]	Cmax [1] [nM]	Tmax [1] [h]	t1/2 [1] [h]	Potency against 5-LOX, in words (5-LOX)	half-life ([2]; male, Sprague-Dawley, rat, whole blood, po, 1 mg/kg) [h]	AUC [2, 4] [µM·h]	Cmax [2, 4] [nM]	Tmax [2, 4] [h]
Cc1ccc(-c2cc(C(F)(F)F)nn2-c2ccc(S(N)(=O)=O)cc2)cc1 [Celecoxib, celecoxib, reference compound]	20 ± 4	–	–	–	–	–	–	–	–	–	–	–	–	–	–	–	–
O=C(NC1CCC(Oc2ccc(C(=O)O)cc2)CC1)NC12CC3CC(CC(C3)C1)C2 (centres unmarked) [t-AUCB, reference compound]	–	25.2	slight antihyperalgesic effect; also recorded: limited effect	–	–	–	–	–	–	–	–	–	–	–	–	–	–
NS(=O)(=O)c1ccc(-n2nc(CCCNC(=O)Nc3cccc(C(F)(F)F)c3)cc2-c2ccccc2)cc1 [Compound 21b, 4-(5-Phenyl-3-{3-[3-(3-trifluoromethyl-phenyl)-ureido]-propyl}-pyrazol-1-yl)-benzenesulfonamide]	–	–	–	20	0.71	0.71	> 100	27.2	0.035	19	0.5	1.0	comparable with celecoxib	–	–	–	–
NS(=O)(=O)c1ccc(-n2nc(CCCNC(=O)Nc3ccc(OC(F)(F)F)cc3)cc2-c2ccccc2)cc1 [Compound 21j, 4-(5-Phenyl-3-{3-[3-(4-trifluoromethoxy-phenyl)-ureido]-propyl}-pyrazol-1-yl)-benzenesulfonamide]	10 ± 2	–	–	–	0.92	–	> 100	13.8	1.335	290	0.8	2.4	comparable with celecoxib	11.6 ± 5.6	1.23 ± 0.521	180 ± 71	1.0 ± 0.7
